Assay results from ChEMBL document CHEMBL5390317, “Novel Indane-Containing NBTIs with Potent Anti-Gram-Negative Activity and Minimal hERG Inhibition” (ACS Med Chem Lett, 2023).
In brackets after ≈: the same amount, converted by molar mass.

Key:
[1] = system: Escherichia coli; experiment: Antibacterial activity against Escherichia coli ATCC BAA-2340 assessed as inhibition in bacterial growth incubated for 20 to 24 hrs by CLSI based broth microdilution method; assay type: functional; settings: Escherichia coli, ATCC BAA-2340, time 20-24 hrs; read-out: MIC
[2] = system: Escherichia coli; experiment: Antibacterial activity against Escherichia coli K-12 BW25113 assessed as inhibition in bacterial growth incubated for 20 to 24 hrs by CLSI based broth microdilution method; assay type: functional; settings: Escherichia coli, K-12 BW25113, time 20-24 hrs; read-out: MIC
[3] = system: Staphylococcus aureus; experiment: Antibacterial activity against Staphylococcus aureus ATCC BAA-1556 assessed as inhibition in bacterial growth incubated for 20 to 24 hrs by CLSI based broth microdilution method; assay type: functional; settings: Staphylococcus aureus, ATCC BAA-1556, time 20-24 hrs; read-out: MIC
[4] = system: Staphylococcus aureus; experiment: Antibacterial activity against Staphylococcus aureus ATCC 29213 assessed as inhibition in bacterial growth incubated for 20 to 24 hrs by CLSI based broth microdilution method; assay type: functional; settings: Staphylococcus aureus, ATCC 29213; time 20-24 hrs; read-out: MIC
[5] = target: T1, hERG (KCNH2) (Homo sapiens, UniProt Q12809); experiment: Inhibition of hERG potassium channel expressed in CHO cells at 1 uM by electrophysiological patch clamp assay relative to control; assay type: toxicity, cell-based; settings: CHO cells expressing hERG
[6] = system: Acinetobacter baumannii; experiment: Antibacterial activity against Acinetobacter baumannii ATCC 51432 assessed as inhibition in bacterial growth incubated for 20 to 24 hrs by CLSI based broth microdilution method; assay type: functional; settings: Acinetobacter baumannii, ATCC 51432, time 20-24 hrs; read-out: MIC
[7] = Inhibition of Escherichia coli topoisomerase 4 incubated for 120 mins by Transcreener ADP2 FI assay
[8] = target: T1, hERG (KCNH2); experiment: Inhibition of hERG potassium channel expressed in CHO cells at 10 uM by electrophysiological patch clamp assay relative to control; assay type: toxicity, cell-based; settings: CHO cells expressing hERG
[9] = system: Klebsiella pneumoniae; experiment: Antibacterial activity against Klebsiella pneumoniae ATCC BAA-2146 assessed as inhibition in bacterial growth incubated for 20 to 24 hrs by CLSI based broth microdilution method; assay type: functional; settings: Klebsiella pneumoniae, ATCC BAA-2146, time 20-24 hrs; read-out: MIC
[10] = system: Escherichia coli; experiment: Antibacterial activity against Escherichia coli K-12 BW25113 deltaTolC assessed as inhibition in bacterial growth incubated for 20 to 24 hrs by CLSI based broth microdilution method; assay type: functional; settings: time 20-24 hrs
[11] = target: Voltage-gated inwardly rectifying potassium channel KCNH2 (Homo sapiens, UniProt Q12809); experiment: (§1) Inhibition of hERG potassium channel expressed in CHO cells by electrophysiological patch clamp assay; assay type: toxicity, cell-based
[12] = target: T1, hERG (KCNH2); experiment: as §1; assay type: toxicity, cell-based; settings: human, CHO cells expressing hERG
[13] = system: Acinetobacter baumannii; experiment: Antibacterial activity against Acinetobacter baumannii ATCC BAA-747 assessed as inhibition in bacterial growth incubated for 20 to 24 hrs by CLSI based broth microdilution method; assay type: functional; settings: Acinetobacter baumannii, ATCC BAA-747, time 20-24 hrs; read-out: MIC
[14] = system: Escherichia coli; experiment: Antibacterial activity against Escherichia coli ATCC 35218 assessed as inhibition in bacterial growth incubated for 20 to 24 hrs by CLSI based broth microdilution method; assay type: functional; settings: Escherichia coli, ATCC 35218, time 20-24 hrs; read-out: MIC
[15] = system: Pseudomonas aeruginosa; experiment: Antibacterial activity against Pseudomonas aeruginosa ATCC 27853 assessed as inhibition in bacterial growth incubated for 20 to 24 hrs by CLSI based broth microdilution method; assay type: functional; settings: time 20-24 hrs
[16] = target: DNA gyrase (Escherichia coli, UniProt P0AES4+P0AES6); experiment: Inhibition of Escherichia coli DNA gyrase incubated for 80 mins by Transcreener ADP2 FI assay; assay type: protein-complex assay
[17] = system: Pseudomonas aeruginosa; experiment: Antibacterial activity against Pseudomonas aeruginosa NCTC 13437 assessed as inhibition in bacterial growth incubated for 20 to 24 hrs by CLSI based broth microdilution method; assay type: functional; settings: Pseudomonas aeruginosa, NCTC 13437, time 20-24 hrs; read-out: MIC
[18] = system: Klebsiella pneumoniae; experiment: Antibacterial activity against Klebsiella pneumoniae ATCC BAA-1705 assessed as inhibition in bacterial growth incubated for 20 to 24 hrs by CLSI based broth microdilution method; assay type: functional; settings: time 20-24 hrs
[19] = system: Pseudomonas aeruginosa; experiment: Antibacterial activity against Pseudomonas aeruginosa NCTC 11451 assessed as inhibition in bacterial growth incubated for 20 to 24 hrs by CLSI based broth microdilution method; assay type: functional; settings: Pseudomonas aeruginosa, NCTC 11451, time 20-24 hrs; read-out: MIC
[20] = system: Escherichia coli; experiment: Antibacterial activity against Escherichia coli ATCC 25922 assessed as inhibition in bacterial growth incubated for 20 to 24 hrs by CLSI based broth microdilution method; assay type: functional; settings: time 20-24 hrs
[21] = system: Acinetobacter baumannii; experiment: Antibacterial activity against Acinetobacter baumannii ATCC 19606 assessed as inhibition in bacterial growth incubated for 20 to 24 hrs by CLSI based broth microdilution method; assay type: functional; settings: time 20-24 hrs
[22] = system: Klebsiella pneumoniae; experiment: Antibacterial activity against Klebsiella pneumoniae ATCC 10031 assessed as inhibition in bacterial growth incubated for 20 to 24 hrs by CLSI based broth microdilution method; assay type: functional; settings: time 20-24 hrs
[23] = system: Klebsiella pneumoniae; experiment: Antibacterial activity against Klebsiella pneumoniae ATCC 700603 assessed as inhibition in bacterial growth incubated for 20 to 24 hrs by CLSI based broth microdilution method; assay type: functional; settings: Klebsiella pneumoniae, ATCC 700603, time 20-24 hrs; read-out: MIC

Chain of Voltage-gated inwardly rectifying potassium channel KCNH2 (Q12809 whole entry): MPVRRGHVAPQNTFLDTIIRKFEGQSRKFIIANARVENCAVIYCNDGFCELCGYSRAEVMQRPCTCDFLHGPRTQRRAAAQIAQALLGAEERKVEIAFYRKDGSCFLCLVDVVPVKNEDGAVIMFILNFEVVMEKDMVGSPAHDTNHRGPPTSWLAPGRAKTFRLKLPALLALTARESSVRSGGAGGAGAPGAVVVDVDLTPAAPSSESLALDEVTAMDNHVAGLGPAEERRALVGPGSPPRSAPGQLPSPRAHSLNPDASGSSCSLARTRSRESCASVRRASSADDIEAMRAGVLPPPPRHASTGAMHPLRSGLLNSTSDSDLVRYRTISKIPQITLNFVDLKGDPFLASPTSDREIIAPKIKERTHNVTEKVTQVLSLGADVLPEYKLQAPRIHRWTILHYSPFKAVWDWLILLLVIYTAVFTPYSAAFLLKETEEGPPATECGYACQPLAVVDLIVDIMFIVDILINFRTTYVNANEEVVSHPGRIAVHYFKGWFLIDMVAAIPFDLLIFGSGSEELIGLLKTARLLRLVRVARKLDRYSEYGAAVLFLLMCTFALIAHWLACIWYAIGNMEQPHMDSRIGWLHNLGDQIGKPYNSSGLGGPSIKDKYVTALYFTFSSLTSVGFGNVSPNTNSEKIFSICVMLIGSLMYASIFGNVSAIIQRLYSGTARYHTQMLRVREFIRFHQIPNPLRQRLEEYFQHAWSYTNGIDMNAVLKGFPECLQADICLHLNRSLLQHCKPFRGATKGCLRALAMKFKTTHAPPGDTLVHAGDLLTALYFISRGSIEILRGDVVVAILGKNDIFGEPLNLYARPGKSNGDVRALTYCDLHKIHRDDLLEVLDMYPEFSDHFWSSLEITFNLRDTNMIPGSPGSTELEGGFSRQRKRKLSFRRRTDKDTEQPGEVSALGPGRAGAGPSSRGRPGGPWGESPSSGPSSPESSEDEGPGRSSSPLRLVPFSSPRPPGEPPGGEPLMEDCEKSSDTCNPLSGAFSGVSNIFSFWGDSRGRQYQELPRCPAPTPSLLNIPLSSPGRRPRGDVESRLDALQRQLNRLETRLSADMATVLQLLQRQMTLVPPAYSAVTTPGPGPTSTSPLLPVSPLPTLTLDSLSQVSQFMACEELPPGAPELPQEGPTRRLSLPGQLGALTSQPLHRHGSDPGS
T1 sequence (Q12809 whole entry): as above

Row | SMILES | MIC [1] | MIC [2] | MIC [3] | MIC [4] | inhibition at 1 µM [5] | MIC [6] | IC50 [7] | inhibition at 10 µM [8] | MIC [9] | MIC [10] | IC50 [11] | IC20 [12] | MIC [13] | MIC [14] | MIC [15] | IC50 [16] | MIC [17] | MIC [18] | MIC [19] | MIC [20] | further results
1 | N#CCOc1cc(F)c2c(c1)CC(CNCCC1CN(c3ccc4c(n3)NC(=O)CO4)C(=O)O1)C2 (stereo not given) | 1 µg/mL (≈ 2.08 µM) | 0.25 µg/mL (≈ 0.519 µM) | 0.25 µg/mL (≈ 0.519 µM) | 0.125 µg/mL (≈ 0.26 µM) | 84% | 1 µg/mL (≈ 2.08 µM) | 0.031 µM | 98% | 8 µg/mL (≈ 16.6 µM) | ≤ 0.06 µg/mL | 0.23 µM | 0.066 µM | 0.125 µg/mL (≈ 0.26 µM) | 0.5 µg/mL (≈ 1.04 µM) | 4 µg/mL (≈ 8.31 µM) | 0.081 µM | 4 µg/mL (≈ 8.31 µM) | 4 µg/mL (≈ 8.31 µM) | 8 µg/mL (≈ 16.6 µM) | 0.5 µg/mL (≈ 1.04 µM) | MIC [21]: 0.5 µg/mL (≈ 1.04 µM); MIC [22]: ≤ 0.06 µg/mL; MIC [23]: 4 µg/mL (≈ 8.31 µM)
2 | N#Cc1cc(OC2CNC2)cc2c1CC(CNCCC1CN(c3ccc4c(n3)NC(=O)CO4)C(=O)O1)C2 (stereo not given) | 0.5 µg/mL (≈ 0.991 µM) | 0.125 µg/mL (≈ 0.248 µM) | 0.5 µg/mL (≈ 0.991 µM) | ≤ 0.06 µg/mL | < 1% | 4 µg/mL (≈ 7.93 µM) | 0.029 µM | < 1% | 8 µg/mL (≈ 15.9 µM) | ≤ 0.06 µg/mL | > 20 µM | > 10 µM | 4 µg/mL (≈ 7.93 µM) | 0.5 µg/mL (≈ 0.991 µM) | 0.125 µg/mL (≈ 0.248 µM) | 0.051 µM | 0.5 µg/mL (≈ 0.991 µM) | 4 µg/mL (≈ 7.93 µM) | 1 µg/mL (≈ 1.98 µM) | 0.5 µg/mL (≈ 0.991 µM) | MIC [21]: 8 µg/mL (≈ 15.9 µM); MIC [22]: ≤ 0.06 µg/mL; MIC [23]: 4 µg/mL (≈ 7.93 µM)
3 | C[C@@H](N)COc1cc(F)c2c(c1)CC(CN1CCC3(CC1)CN(c1cnc4c(n1)NC(=O)CO4)C(=O)O3)C2 (stereo not given in full) | 0.125 µg/mL (≈ 0.237 µM) | ≤ 0.06 µg/mL | ≤ 0.06 µg/mL | ≤ 0.06 µg/mL | 6.7% | 0.5 µg/mL (≈ 0.95 µM) | 0.016 µM | 12% | 1 µg/mL (≈ 1.9 µM) | ≤ 0.06 µg/mL | > 20 µM | > 10 µM | ≤ 0.06 µg/mL | ≤ 0.06 µg/mL | 0.125 µg/mL (≈ 0.237 µM) | 0.024 µM | 0.5 µg/mL (≈ 0.95 µM) | 0.5 µg/mL (≈ 0.95 µM) | 0.5 µg/mL (≈ 0.95 µM) | ≤ 0.06 µg/mL | MIC [21]: 0.25 µg/mL (≈ 0.475 µM); MIC [22]: ≤ 0.06 µg/mL; MIC [23]: 1 µg/mL (≈ 1.9 µM)
4 | N#Cc1cc(OCC2CNC2)cc2c1CC(CNCCC1CN(c3ccc4c(n3)NC(=O)CO4)C(=O)O1)C2 (stereo not given) | 1 µg/mL (≈ 1.93 µM) | 1 µg/mL (≈ 1.93 µM) | 1 µg/mL (≈ 1.93 µM) | 0.5 µg/mL (≈ 0.964 µM) | < 1% | 16 µg/mL (≈ 30.9 µM) | 0.019 µM | < 1% | 64 µg/mL (≈ 123 µM) | ≤ 0.06 µg/mL | > 20 µM | > 10 µM | 8 µg/mL (≈ 15.4 µM) | 2 µg/mL (≈ 3.86 µM) | 0.5 µg/mL (≈ 0.964 µM) | 0.038 µM | 4 µg/mL (≈ 7.71 µM) | 16 µg/mL (≈ 30.9 µM) | 4 µg/mL (≈ 7.71 µM) | 2 µg/mL (≈ 3.86 µM) | MIC [21]: 32 µg/mL (≈ 61.7 µM); MIC [22]: 0.125 µg/mL (≈ 0.241 µM); MIC [23]: 32 µg/mL (≈ 61.7 µM)
5 | CS(=O)(=O)NCCOc1cc(C#N)c2c(c1)CC(CNCCC1CN(c3ccc4c(n3)NC(=O)CO4)C(=O)O1)C2 (stereo not given) | 2 µg/mL (≈ 3.5 µM) | 0.5 µg/mL (≈ 0.876 µM) | 0.5 µg/mL (≈ 0.876 µM) | 0.25 µg/mL (≈ 0.438 µM) | < 1% | 4 µg/mL (≈ 7.01 µM) | 0.032 µM | 30% | 16 µg/mL (≈ 28 µM) | ≤ 0.06 µg/mL | > 20 µM | 5.9 µM | 2 µg/mL (≈ 3.5 µM) | 1 µg/mL (≈ 1.75 µM) | 1 µg/mL (≈ 1.75 µM) | 0.026 µM | 4 µg/mL (≈ 7.01 µM) | 16 µg/mL (≈ 28 µM) | 4 µg/mL (≈ 7.01 µM) | 1 µg/mL (≈ 1.75 µM) | MIC [21]: 4 µg/mL (≈ 7.01 µM); MIC [22]: ≤ 0.06 µg/mL; MIC [23]: 16 µg/mL (≈ 28 µM)
